# Measurements: patent publication US8586719B2, “Triterpenes for modulating gene expression and cell membrane, and as antiprotozoal agents” (Pacific Arrow Limited, priority 2005, dated 2013)
# How the values were obtained:
# (bladder) TB9 cells = assay: Anti-cancer activity (MTT assay), bladder TB9 cells; type: cell-based; settings: Homo sapiens
# Text: (Our purification methods and biological assays including the MTT assay in International Application No. PCT/US05/31900, filed Sep. 7, 2005, U.S. Ser. No. 11/289,142, filed Nov. 28, 2005, and U.S. Ser. No. 11/131,551, filed May 17, 2005, and PCT/US2008/002086, 1188-ALA-PCT, filed Feb. 15, 2008, the contents of which are incorporated herein by reference)
# Experiment details of herb extraction, analysis of extract components by HPLC, determination of the cell-growth activity effected by Xanifolia Y with cells derived from different human organs using MTT Assay, purification of the bioactive components from plant extract, fractionation of plant extracts with FPLC, isolation of component Ys with preparative HPLC, determination of the chemical structure, cell experiments and animal studying are disclosed in PCT/US05/31900, U.S. Ser. No. 11/289,142, U.S. Serial 10/906,303, U.S. Ser. No. 11/131,551 and U.S. Ser. Nos. 11/683,198, filed on Mar. 7, 2007, PCT/US2007/077273, filed Aug. 30, 2007, U.S. Ser. No. 60/890,380, filed on Feb. 16, 2007, U.S. Nos. 60/947,705, filed on Jul. 3, 2007, PCT/US2008/002086, 1188-ALA-PCT, filed Feb. 15, 2008, the contents of which are incorporated herein by reference. Experiments 1-23 of PCT/US2008/002086, 1188-ALA-PCT, filed Feb. 15, 2008 are incorporated herein by reference.
# [1] = tested on: Leishmania Major (promastigotes); assay: Cell growth of Leishmania parasites by MTT assay; type: cell-based; settings: Leishmania major, read-out: IC50, cytotoxic to Leishmania Major (promastigotes)
# Protocol: Method: Leishmania parasites (Leishmania major: MRHO/SU/59/P/LV39) were grown in culture medium in a T75 flask at room temperature. Promastigotes of Leishmania major (approximately 40 million per ml) were used in the experiment. 1.2 ml cell culture was transferred to a well of the 24-wells plate. Saponin Y10 (0.2 ml in medium) with different concentrations (final 6.25-200 ug/ml) was added to culture and cells were grown for 1-5 days at room temperature. At the end of drug-treatment, 150 ul of MTT (5 mg/ml in PBS) was added to each well and incubated for 4 hours. Formazan formed in cells was dissolved with DMSO and the OD at 490 nm was determined by an ELISA reader.
# Glypican 6 (GPC6) = assay: Microarray gene expression in ES2 cells: Glypican; type: cell-based, human
# Text: (§1) The composition comprises bioactive compounds from natural plants or synthesis. The majority of the plants are from the Sapindaceae family, which has 140-150 genera with 1400-2000 species. The program is based on our purification methods and biological assays including the MTT assay See International Application No. PCT/US05/31900, filed Sep. 7, 2005, U.S. Ser. No. 11/289,142, filed Nov. 28, 2005, and U.S. Ser. No. 11/131,551, filed May 17, 2005, and PCT/US2008/002086, 1188-ALA-PCT, filed Feb. 15, 2008, the contents of which are incorporated herein by reference. The details of Analysis of gene expression of ES2 cells after Y-treatment by Microarray, Data Analysis Methods and Western blot in PCT/US2008/002086, 1188-ALA-PCT, filed Feb. 15, 2008, the contents of which are incorporated herein by reference
# [2] = tested on: regulator of G-protein signalling 4 (RGS4); assay: Microarray gene expression in ES2 cells: regulator of G-protein; type: cell-based, human
# Text: as §1
# [3] = tested on: insulin-like growth factor binding protein 7 (IGFBP7); assay: Microarray gene expression in ES2 cells: IGFBP7; type: cell-based, human; settings: probe set 201163_s_at
# Text: as §1
# [4] = tested on: protein phosphatase 1, regulatory (inhibitor) subunit 15A (PPP1R15A); assay: Microarray gene expression in ES2 cells: PPP1R15A; type: cell-based, human
# Text: as §1
# [5] = tested on: dual specificity phosphatase 10 (DUSP10); assay: Microarray gene expression in ES2 cells: DUSP10; type: cell-based, human
# Text: as §1
# angiopoietin-like 1 = assay: Microarray gene expression in ES2 cells: angiopoietin-like 1; type: cell-based, human; settings: micro array
# Text: as §1
# Angiogenesis is a process involving the growth of new blood vessels. It is a normal process in growth and development. However, this is also a fundamental step in the transition of tumors from a dormant state to a malignant state. The angiopoietins are protein growth factors that modulate angiogenesis. […]
# Angiopoietin 2 (Ang2) = assay: Up regulation of Angiopoietin 2 (Ang2) in ES2 cells; type: cell-based, human; settings: study in PCT/US2008/002086
# Text: The results of study in PCT/US2008/002086, 1188-ALA-PCT, filed Feb. 15, 2008 are incorporated herein by reference.
# ITGAV (integrin alpha V) = assay: Gene expression by Real-time PCR: ITGAV; type: cell-based; settings: control = 100
# Text: (§2) Determination of gene expression by Real-time PCR method (Brilliant QPCR, Agilent Technologies): The real-time polymerase chain reactions further confirm the results obtained from micro array analysis. The Real-time PCR results (shown below) confirmed that Compound Y3 and YM increase the expression of the genes: ANGPT2, DDIT3, LIF and NFKB1Z
# LAMA4 (laminin alpha 4) = assay: Gene expression by Real-time PCR: LAMA4; type: cell-based; settings: control = 100
# Text: as §2
structure (smiles),measurement,setting,value
"C/C=C(/C)C(=O)O[C@H]1[C@H](OC(=O)/C(C)=C\C)[C@@]2(CO)C(CC1(C)C)C1=CCC3[C@@]4(C)CC[C@H](O[C@@H]5OC(C(=O)O)[C@@H](O)[C@@H](O[C@@H]6O[C@@H](CO)[C@@H](O)C6O)C5O[C@@H]5OC(CO)[C@H](O)[C@@H](O)C5O)C(C)(C)C4CC[C@@]3(C)[C@]1(C)[C@@H](O)[C@H]2O (stereo partly drawn) [Y, 3-O-[β-D-galactopyranosyl(1→2)]-α-L-arabinofuranosy (1→3)-β-D-glucuronopyranosyl-21,22-O-diangeloyl-3β, 15α, 16α, 21β, 22α, 28-hexahydroxyolean-12-ene]",IC50,(bladder) TB9 cells,5 µg/mL
same,IC50,[1],15 µg/mL
same,"GPC6 expression, treated/D (DMSO control)",Glypican 6 (GPC6); probe set 227059_at,−2.2
same,"GPC6 expression, treated/D (DMSO control)",Glypican 6 (GPC6); probe set 243865_x_at,−2.7
same,"RGS4 expression, treated/D (DMSO control)",[2]; probe set 204337_at,−3.4
same,"RGS4 expression, treated/D (DMSO control)",[2]; probe set 204338_s_at,−2.5
same,"RGS4 expression, treated/D (DMSO control)",[2]; probe set 204339_s_at,−3.5
same,"IGFBP7 expression, treated/D (DMSO control)",[3],−1.4
same,"PPP1R15A expression (given as Y/D, YM/D)",[4]; 37028_at,2.4
same,"PPP1R15A expression (given as Y/D, YM/D)",[4]; 202014_at,2.6
same,"DUSP10 expression (given as Y/D, YM/D)",[5]; 215501_s_at,3.2
same,"DUSP10 expression (given as Y/D, YM/D)",[5]; 221563_at,3.8
same,gene expression of angiopoietin-like 1,angiopoietin-like 1,inhibit
same,Angiopoietin 2 (Ang2) in ES2 cells,Angiopoietin 2 (Ang2),Up regulation
same,"ITGAV expression, % of control",ITGAV (integrin alpha V),63.8 % of control
same,"LAMA4 expression, % of control",LAMA4 (laminin alpha 4),53.6 % of control
